# Experimental data reported in PubChem BioAssay (NCI).
# “And” between values parts separate entries of the source, which are not always exact repeats. Equal entries are not always repeated.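 Test compounds were applied to cells in 96-well plates for 48 hours at 5 doses. The concentration for 50% growth inhibition is given as GI50. The concentration for full growth arrest is given as TGI.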
# How the values were obtained:
# Test in all cases: NCI tumour cell line growth inhibition, 48 h
# [1] = system: KM20L2 colon
# [2] = system: DMS 273 small cell lung
# [3] = system: XF 498 CNS
# [4] = system: SNB-78 CNS
# [5] = system: DLD-1 colon
# [6] = system: RXF-631 renal
# [7] = system: HOP-18 NSCLC
# [8] = system: DMS 114 small cell lung
# [9] = system: MDA-N
Structure (SMILES),TGI [1],TGI [2],TGI [3],TGI [4],TGI [5],TGI [6] [µM],TGI [7],TGI [8] [µM],TGI [9] [µM],GI50 [7],GI50 [2],GI50 [1] [µM],GI50 [3] [µM],GI50 [4] [µM],GI50 [5] [µM],GI50 [6] [µM],GI50 [8] [µM]
O=C(COc1ccccc1Cl)N1N=C(c2ccc(Cl)cc2)CC1(O)c1ccccc1 (configuration not stated),> 100 µM,> 100 µM,> 100 µM,> 100 µM,> 100 µM,> 100,,,,,,,,,,,
O=c1cc(-c2cccs2)[nH]c2cc3c(cc12)OCO3,41.3 µM,> 100 µM,15.3 µM,> 100 µM,> 100 µM,> 100,> 100 µM,> 24.5,,,,,,,,,
CN(C)CCNC(=O)Cn1ccc(=O)c2cc([N+](=O)[O-])ccc21,,,,,,,,,> 100,,,,,,,,
CC(=O)c1c(O)c(C)c(O)c(Cc2c(O)c3c(c(C(=O)/C=C/c4ccccc4)c2O)OC(C)(C)C=C3)c1O,,,,,,,,,> 100,,,,,,,,
COC(=O)c1sc(C(=O)OC)c2c1CS(=O)C2,> 100 µM,> 100 µM,> 100 µM,> 100 µM,> 100 µM,> 100,> 100 µM,> 100,,,,,,,,,
O=C1C[C@H]2CCCN2[C@@H](c2ccccc2)C1,> 100 µM,> 100 µM,> 100 µM,> 100 µM,,> 100,> 100 µM,,,,,,,,,,
CCOC(=O)Cc1nc2ccc3c(c2[nH]c1=O)C(=O)c1ccccc1C3=O,> 100 µM,> 100 µM,> 100 µM,> 100 µM,> 100 µM,> 100,91.6 µM,> 100,,,,,,,,,
CNC(=S)Nc1ccc(OC)c2ccccc12,,,,,,,,,> 10,,,,,,,,
CCc1cccc(C)c1NS(=O)(=O)c1ccccc1,> 100 µM,> 100 µM,> 100 µM,> 100 µM,> 100 µM,> 100,,> 100,,,,,,,,,
O=C(O)CCNS(=O)(=O)c1ccc(NC(=O)c2ccccc2)cc1,> 100 µM,> 100 µM,> 100 µM,,> 100 µM,,> 100 µM,,,,,,,,,,
CN(C)c1cc2ccccc2oc1=O,,,,,,,,,> 100,,,,,,,,
Cn1ccnc1CCc1c(Cl)cccc1Cl,> 100 µM,> 100 µM,,> 100 µM,> 100 µM,,> 100 µM,> 100,,,,,,,,,
O=C1C2C3C=C4c5ccccc5N(c5ccccc5)C4(C2C(=O)N1c1ccccc1)C1C(=O)N(c2ccccc2)C(=O)C31 (configuration not stated),> 100 µM,,> 100 µM,> 100 µM,> 100 µM,> 100,> 100 µM,> 100,,,,,,,,,
Cn1c(=O)c(N=Nc2c(=O)n(C)c(=O)n3c2[nH]c2ccccc23)c2[nH]c3ccccc3n2c1=O,> 100 µM,> 100 µM,> 100 µM,> 100 µM,> 100 µM,> 100,> 100 µM,> 100,,,,,,,,,
O=C(N/N=C/c1ccccc1O)N/N=C/c1ccccc1O,> 100 µM,> 100 µM,> 100 µM,> 100 µM,> 100 µM,> 100,> 100 µM,> 100,,,,,,,,,
C=C(c1ccccc1)C1(O)CCCCC1N (configuration not stated),> 100 µM,> 100 µM,> 100 µM,> 100 µM,> 100 µM,,> 100 µM,> 100,,,,,,,,,
Cc1ccc(S(=O)(=O)SC/C=C\CSS(=O)(=O)c2ccc(C)cc2)cc1,> 88.5 µM and 49.1 µM,> 43.7 µM and 35.3 µM,> 100 µM and 43.9 µM,> 100 µM and 89.5 µM,> 100 µM and 47.7 µM,,> 100 µM and 82.5 µM,,> 31.6,> 100 µM and 35.6 µM,3.92 µM and 18.3 µM,,,,,,
c1cc[c]([Sn][c]2ccccc2)cc1,18.8 µM,35.9 µM,17.9 µM,> 100 µM,23.2 µM,> 100,48.8 µM,> 100,,21.6 µM,16.8 µM,13.4,13.3,39.8,15.4,35.6,32.7
O=C(NCCCOC(=O)CCCCCCCCC(=O)OCCCNC(=O)NC(=O)c1c[nH]c(=O)[nH]c1=O)NC(=O)c1c[nH]c(=O)[nH]c1=O,> 100 µM,> 100 µM,> 100 µM,> 100 µM,> 100 µM,> 100,> 100 µM,,,,,,,,,,
COc1cc(Cl)cc(=O)c(O)c1OC,> 100 µM,> 100 µM,> 100 µM,> 100 µM,> 100 µM,,> 100 µM,67.6,,,,,,,,,
